The record followed here is patent publication US8288377B2, “Inhibitors of the interaction between MDM2 and p53” (Janssen Pharmaceutica N.V., priority 2007, dated 2012).

For assay [1], the system named is A2780 ovarian cancer cells. The experiment in a line: Proliferation assay (Alamar Blue). The note with it: Homo sapiens, 96 h, 4-day incubation, read-out: pIC50 (negative log value of the IC50-value) (converted). In kind it is cell-based. As for the experimental part: Cellular activity of the compounds of formula (I) was determined on A2780 tumour cells using a colorimetric assay for cell toxicity or survival (see example C.2).
The human A2780 ovarian cancer cells were a kind gift from Dr. T. C. Hamilton (Fox Chase Cancer Centre, Pennsylvania, U.S.A.). The cells were cultured in RPMI 1640 medium supplemented with 2 mM L-Glutamine, 50 μg/ml gentamicin and 10% fetal calf serum.
Resazurin was purchased from Aldrich (Prod. No. 199303). Potassium ferrocyanide, potassium ferricyanide, KH2PO4 and K2HPO4 were purchased from Sigma (Prod. Nos. P9387, P8131, P5655 and P8281, respectively).
Potassium Phosphate Buffer 0.1 M (PPB) was made as follows: 2.72 gram KH2PO4 and 13.86 gram K2HPO4 were dissolved in 500 ml milli-Q H2O, the pH was adjusted to pH 7.4 and the volume was brought to 1 liter with milli-Q H2O; the buffer was filter sterilised and stored at room temperature. Resazurin stock solution (PPB-A) was prepared fresh by dissolving 45 mg resazurin in 15 ml PBS. 30 mM potassium ferricyanide (PPB-B) was prepared by dissolving 0.987 gram potassium ferricyanide in 100 ml PPB. 30 mM potassium ferrocyanide (PPB-C) was prepared by dissolving 1.266 gram potassium ferrocyanide in 100 ml PPB.
Mixture of PPB-A, PPB-B and PPB-C was prepared by mixing equal volumes of the respective solutions. Resazurin work solution (herein termed “Alamar Blue” solution) was prepared by diluting said mixture 20× (vol/vol) in PPB and filter sterilising; the Alamar Blue solution could be kept at 4° C. for a maximum of 2 weeks.
For experiments in 384 wells plates the cells were seeded at a density of 5×10^3 cells/ml in Falcon 384-well culture plates (Life Technologies, Merelbeke, Belgium), black with clear bottom, in 45 μl culture medium. Cells were allowed to adhere to plastic for 24 hr. The tested compound was pre-diluted (1/50 in culture medium) and 5 μl pre-diluted compound was added to the wells. Following 4-day incubation, 10 μl of the Alamar Blue solution was added to each well and the cells were further incubated for 5 hrs (A2780) at 37° C. The fluorescence intensity was measured for each well with a Fluorescence plate reader (Fluorskan, Labsystems, 540 nm excitation and 590 nm emission)
The antiproliferative activity was calculated as percentage of remaining viable cells in treated versus control (untreated cells) conditions. Within an experiment, the result for each experimental condition is the mean of 3 replicate wells. When appropriate, the experiments were repeated to establish full concentration-response curves. When appropriate, IC50-values (concentration of the drug, needed to reduce cell growth to 50% of the control) were computed using probit analysis for graded data (Finney, D. J., Probit Analyses, 2nd Ed. Chapter 10, Graded Responses, Cambridge University Press, Cambridge 1962). Herein the effects of test compounds are expressed as pIC50 (the negative log value of the IC50-value) (see Table 4).

For assay [2], the system named is p53 in A2780 cells. Kind of assay: p53 ELISA (preservation of p53 in A2780 cells). In kind it is cell-based. The conditions noted are these: Homo sapiens, treated with compound for 16 hours, read-out: p53-elisa LAD (lowest dose giving at least 140% of the value for p53 present in the control). As for the experimental part: The capacity of the compounds to preserve p53 in A2780 cells was measured with the p53 enzyme linked immunosorbent assay (ELISA). The p53 assay is a “sandwich” enzyme immunoassay employing two polyclonal antibodies. A polyclonal antibody, specific for the p53 protein, has been immobilized onto the surface of the plastic wells. Any p53 present in the sample to be assayed will bind to the capture antibody. The biotinylated detector polyclonal antibody also recognizes p53 protein, and will bind to any p53, which has been retained by the capture antibody. The detector antibody, in turn, is bound by horseradish peroxidase-conjugated streptavidin. The horseradish peroxidase catalyses the conversion of the chromogenic substrate o-phenylene diamine, the intensity of which is proportional to the amount of p53 protein bound to the plate. The coloured reaction product is quantified using a spectrophotometer. Quantitation is achieved by the construction of a standard curve using known concentrations of purified recombinant HIS tagged p53 protein (see example C.1).
A2780 cells (ATCC) were cultivated in RPMI 1640 supplemented with 10% fetal calf serum (FCS), 2 mM L-glutamine and gentamycin at 37° C. in a humidified incubator with 5% CO2.
A2780 cells were seeded at 20.000 cells per well in a 96 well plate, cultured for 24 hours and treated with compound for 16 hours at 37° C. in a humidified incubator. After incubation, the cells were washed once with phosphate-buffered saline and 30 μl, per well, low salt RIPA buffer (20 mM tris, pH7.0, 0.5 mM EDTA, 1% Nonidet P40, 0.5% DOC, 0.05% SDS, 1 mM PMSF, 1 μg/ml aprotinin and 0.5 μ/ml leupeptin) was added. Plates were placed on ice for 30 minutes to complete the lysis. p53 protein was detected in de lysates by using the sandwich ELISA, described below.
High binding polystyrene EIA/RIA 96 well plates (Costar 9018) were coated with the capture antibody pAb1801 (Abcam ab28-100) at a concentration of 1 μg/ml in coating buffer (0.1 M NaHCO3 pH8.2), 50 μl per well. The antibody was allowed to adhere overnight at 4° C. Coated plates were washed once with phosphate-buffered saline (PBS)/0.05% Tween 20 and 300 μl of blocking buffer (PBS, 1% bovine serum albumins (BSA)) was added, for an incubation period of 2 hours at room temperature. Dilutions of purified recombinant HIS tagged p53 protein, ranging from 3-200 ng/ml, were made in blocking buffer and used as standards.
Plates were washed twice with PBS/0.05% Tween 20 and blocking buffer or standards were added at 80 μl/well. To the standards, 20 μl of lysis buffer was added. The samples were added to the other wells at 20 μl lysate/well. After an overnight incubation at 4° C., plates were washed twice with PBS/0.05% Tween 20. Aliquots of 100 μl secondary polyclonal antibody p53(FL-393) (Tebubio, sc-6243) at a concentration of 1 μg/ml in blocking buffer were added to each well and allowed to adhere for 2 hours at room temperature. Plates were washed three times with PBS/0.05% Tween 20. Detection antibody anti-rabbit HRP (sc-2004, Tebubio) at 0.04 μg/ml in PBS/1% BSA was added and incubated for 1 hour at room temperature. Plates were washed three times with PBS/0.05% Tween 20 and 100 μl of substrate buffer was added (substrate buffer was prepared shortly before use by adding 1 tablet of 10 mg o-phenylene diamine (OPD) from Sigma and 125 μl 3% H2O2 to 25 ml OPD buffer: 35 mM citric acid, 66 mM Na2HPO4, pH5.6). After 5 to 10 minutes, colour reaction was stopped by adding 50 μl stop buffer (1 M H2SO4) per well. The absorbance at dual wavelengths of 490/655 nm was measured using a Biorad micro plate reader and the results were then analyzed.
For each experiment, controls (containing no drug) and a blank incubation (containing no cells or drugs) were run in parallel. The blank value was subtracted from all control and sample values. For each sample, the value of p53 (in absorbance units) was expressed as the percentage of the value for p53 present in the control. […]

In the case of `COc1cccc2c(CCN3CCOc4cc(Nc5ccnc6c5CCC6O)ccc43)c[nH]c12` (centres unmarked) [Compound 71], in assay [1], the IC50 is 5.25 µM. In addition, in assay [2], the minimal effective concentration is more than 10 µM.
With `Cc1cccc2c(CCN3CC4(CCCCC4)Oc4cc(Nc5ccncc5)ccc43)c[nH]c12` [Compound 59], the IC50 in assay [1] was 2.45 µM. In addition, the minimal effective concentration in assay [2] is more than 10 µM.
In the case of `c1ccc2c(CCN3CCOc4cc(Nc5ccncc5)ccc43)c[nH]c2c1` [Compound 3], the IC50 in assay [1] is more than 10 µM. In addition, the minimal effective concentration in assay [2] was more than 10 µM.
On to `OC1CCc2c(Nc3ccc4c(c3)OC3(CCNCC3)CN4CCc3c[nH]c4ccccc34)ccnc21` (centres unmarked) [Compound 31], for which the IC50 in assay [1] is more than 10 µM. For the same compound, the minimal effective concentration in assay [2] is more than 10 µM.
For the compound `CC1CN(CCc2c[nH]c3ccccc23)c2ccc(Nc3ccnc4c3CCC4O)cc2O1` (centres unmarked) [Compound 24], the IC50 in assay [1] was 5.62 µM. Moreover, the minimal effective concentration in assay [2] was determined as 3 µM.
As for `Fc1cc(Nc2ccncc2)cc2c1N(CCc1c[nH]c3ccccc13)CCO2` [Compound 50], the IC50 in assay [1] was 8.13 µM. The minimal effective concentration in assay [2] is more than 10 µM.
`CC1CN(CCc2c[nH]c3ccccc23)c2ccc(Nc3ccncc3)cc2O1` (centres unmarked) [Compound 9]: in assay [1], the IC50 was approximately 5.89 µM. Further, in assay [2], the minimal effective concentration is more than 10 µM.
Regarding `O=C1COc2cc(Nc3ccnc4c3CCC4O)ccc2N1CCc1c[nH]c2ccccc12` (centres unmarked) [Compound 2], the IC50 in assay [1] is approximately 6.03 µM. In addition, the minimal effective concentration in assay [2] is 1 µM.
Consider `CC(C)N1CCC2(CC1)CN(CCc1c[nH]c3ccccc13)c1ccc(Nc3ccncc3)cc1O2` [Compound 8], for which, in assay [1], the IC50 was 1.26 µM. Moreover, in assay [2], the minimal effective concentration was more than 10 µM.
Consider `c1ccc2c(CCN3CCOc4cc(Nc5ccncc5)ccc43)csc2c1` [Compound 6], for which, in assay [1], the IC50 was 5.5 µM. In addition, the minimal effective concentration in assay [2] was more than 10 µM.
For the compound `O=C1COc2cc(Nc3ccnc(CO)c3)ccc2N1CCc1c[nH]c2ccccc12` [Compound 21], in assay [1], the IC50 is more than 10 µM. Besides, the minimal effective concentration in assay [2] is more than 10 µM.
On to `CC(C)N1CCC2(CC1)CN(CCc1c[nH]c3ccccc13)c1ccc(Nc3ccnc(CO)c3)cc1O2` [Compound 36], for which the concentration for half-maximal inhibition (IC50) in assay [1] was 3.39 µM. In addition, in assay [2], the minimal effective concentration was more than 10 µM.
Take `OCc1cc(Nc2ccc3c(c2)OC2(CCSCC2)CN3CCc2c[nH]c3ccccc23)ccn1` [Compound 39]: the IC50 in assay [1] is approximately 4.79 µM. Besides, in assay [2], the minimal effective concentration was more than 10 µM.
With `OCc1cc(Nc2ccc3c(c2)OC2(CCCCC2)CN3CCc2c[nH]c3ccccc23)ccn1` [Compound 41], the IC50 in assay [1] was approximately 4.79 µM. Further, the minimal effective concentration in assay [2] was more than 10 µM.
With `Cc1cccc2c(CCN3CC4(CCCCC4)Oc4cc(Nc5ccnc(CO)c5)ccc43)c[nH]c12` [Compound 34], in assay [1], the IC50 was 4.37 µM. The minimal effective concentration in assay [2] came out at 0.3 µM.
Taken in the same sequence, the figures for `c1ccc2c(CCN3CC4(CCCCC4)Oc4cc(Nc5ccncc5)ccc43)c[nH]c2c1` [Compound 55] were 3.72 µM and more than 10 µM.
For `COc1cccc2c(CCN3CCOc4cc(Nc5ccnc(CO)c5)ccc43)c[nH]c12` [Compound 81], the half-inhibitory concentration (IC50) in assay [1] was 4.17 µM. The minimal effective concentration in assay [2] is more than 10 µM.
Consider `Cc1cccc2c(CCN3CC(C)Oc4cc(Nc5ccnc6c5CCC6O)ccc43)c[nH]c12` (centres unmarked) [Compound 42], for which the IC50 in assay [1] was 4.79 µM. Besides, the minimal effective concentration in assay [2] was more than 10 µM.
With `OC1CCc2c(Nc3ccc4c(c3)OCCN4CCc3coc4ccccc34)ccnc21` (centres unmarked) [Compound 70], the IC50 in assay [1] was 6.46 µM. For the same compound, the minimal effective concentration in assay [2] is 10 µM.
Turning to `Cc1cccc2c(CCN3CC(C)(C)Oc4cc(Nc5ccnc(CO)c5)ccc43)c[nH]c12` [Compound 38], the half-maximal inhibitory concentration (IC50) in assay [1] is 3.72 µM. The minimal effective concentration in assay [2] was more than 10 µM.
For `Cc1cccc2c(CCN3CC(C)Oc4cc(Nc5ccnc(CO)c5)ccc43)c[nH]c12` (centres unmarked) [Compound 37], the half-maximal inhibitory concentration (IC50) in assay [1] was 3.55 µM. Moreover, the minimal effective concentration in assay [2] is more than 10 µM.
In the case of `COc1cccc2c(CCN3CCOc4cc(Nc5ccncc5)ccc43)c[nH]c12` [Compound 47], the IC50 in assay [1] was approximately 6.46 µM. In addition, the minimal effective concentration in assay [2] is more than 10 µM.
